Test results from PMC4399838, “Antipsychotic-Like Effect of the Muscarinic Acetylcholine Receptor Agonist BuTAC in Non-Human Primates” (PLoS ONE, 2015).

Experiments:
monkeys [1] = tested on: monkeys; parameters: method as in PMID 10435384; settings: cited from earlier work
[2] = molecular target: T1, human M2 muscarinic receptor (Homo sapiens, UniProt P08172); assay: GTP-γ-[35S] binding, antibody capture SPA (agonist and antagonist mode); assay type: biochemical
T1 construct: purchased PerkinElmer Life and Analytical Sciences, Boston, MA
T1 sequence (P08172 1-466): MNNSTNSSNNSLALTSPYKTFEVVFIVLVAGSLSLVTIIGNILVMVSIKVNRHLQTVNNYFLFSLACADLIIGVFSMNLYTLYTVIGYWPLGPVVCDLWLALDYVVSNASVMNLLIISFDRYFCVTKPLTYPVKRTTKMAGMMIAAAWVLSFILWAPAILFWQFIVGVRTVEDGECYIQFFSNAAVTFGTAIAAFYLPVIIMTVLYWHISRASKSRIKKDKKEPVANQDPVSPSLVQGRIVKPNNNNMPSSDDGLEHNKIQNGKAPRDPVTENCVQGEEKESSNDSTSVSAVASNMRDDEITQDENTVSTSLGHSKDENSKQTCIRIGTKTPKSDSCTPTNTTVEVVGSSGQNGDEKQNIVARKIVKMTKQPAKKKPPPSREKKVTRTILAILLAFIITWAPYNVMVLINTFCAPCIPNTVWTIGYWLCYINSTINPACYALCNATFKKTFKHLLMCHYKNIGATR
Description: (§1) The antibody capture scintillation proximity technique previously described by DeLapp et al was used in a 96-well plate to determine GTP-γ-[35S] binding. One hundred μl (20–40 fmol/well) of membrane preparation from CHO cells that stably express the human M1-M5 muscarinic receptors (PerkinElmer Life and Analytical Sciences, Boston, MA) were incubated with varying concentration of test compound (final concentrations from 50pM to 1μM) for 30 min. One μM final concentration of GDP was added to M2 and M4 receptor membranes before incubation. […] (500 pM final concentration; Perkin Elmer Life and Analytical Sciences) was added to each well followed by 30 min of incubation. Then the labelled membranes were solubilized with 0.27% Nonidet P40 for 30 min where after they were incubated with 20 μl (final dilution of 1:400) of the appropriate rabbit polyclonal Gα antibody (Covance, Princeton, NJ) for 60 min. An anti-Gαq/11 antibody was used for the M1-, M3-, and M5 membranes, whereas an anti-Gαi-3 antibody was used for the M2- and M4 membranes (Eli Lilly and Company, Indianapolis, IN). After 60 min of incubation, 50 μl (1.25 mg/well) anti-rabbit scintillation proximity assay (SPA) beads (GE Healthcare, Piscataway, NJ) were added per well where after the plates were incubated for another 3 h. By use of a Wallac MicroBeta TriLux scintillation counter (PerkinElmer), the plates were centrifuged for 10 min at 700 × g and counted for 1 min per well. The incubations took place at room temperature in GTP-binding assay buffer (20 mM Hepes, 100 mm NaCl, 5 mM MgC12, pH 7.4). The data were analyzed by use of nonlinear regression for a sigmoidal concentration response curve (GraphPad Prism v. 4.0). Data were normalized to a full agonist response (100 μM oxotremorine-M). […] The antagonist percent inhibition data were normalized to data generated with an EC90 concentration of acetylcholine. The mean relative EC50, IC50, and %Emax, and pKi values were calculated as a mean of at least three independent experiments±SEM. In order to obtain relevant comparisons between subtypes, the experimental system is routinely calibrated with reference agonists (oxotremorine-M, pilocarpine, MCN-A343) to measure full and partial agonism as well as to ensure that the system is not under- or over-reporting functional efficacies. The radioligand binding assays have earlier been described.

[3] = molecular target: T2, human M3 muscarinic receptor (Homo sapiens, UniProt P20309); assay: as above; assay type: biochemical
T2 construct: purchased PerkinElmer Life and Analytical Sciences, Boston, MA
Description: as §1

[4] = molecular target: T3, human M4 muscarinic receptor (Homo sapiens, UniProt P08173); assay: as above; assay type: biochemical
T3 construct: purchased PerkinElmer Life and Analytical Sciences, Boston, MA
T3 sequence (P08173 1-479): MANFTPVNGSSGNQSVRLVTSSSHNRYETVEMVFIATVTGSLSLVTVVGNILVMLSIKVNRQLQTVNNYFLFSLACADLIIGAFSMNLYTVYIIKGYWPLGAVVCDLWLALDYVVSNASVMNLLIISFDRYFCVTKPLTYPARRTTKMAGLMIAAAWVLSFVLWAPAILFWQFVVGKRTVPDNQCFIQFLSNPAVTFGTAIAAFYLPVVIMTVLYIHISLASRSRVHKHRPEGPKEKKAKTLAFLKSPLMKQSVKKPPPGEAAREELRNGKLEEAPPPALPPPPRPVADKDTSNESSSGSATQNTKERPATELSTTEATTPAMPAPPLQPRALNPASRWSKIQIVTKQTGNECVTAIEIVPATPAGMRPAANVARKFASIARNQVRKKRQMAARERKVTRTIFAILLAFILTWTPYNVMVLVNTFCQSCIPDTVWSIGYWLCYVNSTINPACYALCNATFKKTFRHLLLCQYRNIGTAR
Description: as §1, with “Then the labelled membranes were solubilized with 0.27% Nonidet P40 for 30 min where after they were incubated with 20 μl (final dilution of 1:400) of the appropriate rabbit polyclonal Gα antibody (Covance, Princeton, NJ) for 60 min.” left out, “After 60 min of incubation, 50 μl (1.25 mg/well) anti-rabbit scintillation proximity assay (SPA) beads (GE Healthcare, Piscataway, NJ) were added per well where after the plates were incubated for another 3 h.” left out

[5] = molecular target: T4, human M5 muscarinic receptor (Homo sapiens, UniProt P08912); assay: as above; assay type: biochemical
T4 construct: purchased PerkinElmer Life and Analytical Sciences, Boston, MA
T4 sequence (P08912 1-532): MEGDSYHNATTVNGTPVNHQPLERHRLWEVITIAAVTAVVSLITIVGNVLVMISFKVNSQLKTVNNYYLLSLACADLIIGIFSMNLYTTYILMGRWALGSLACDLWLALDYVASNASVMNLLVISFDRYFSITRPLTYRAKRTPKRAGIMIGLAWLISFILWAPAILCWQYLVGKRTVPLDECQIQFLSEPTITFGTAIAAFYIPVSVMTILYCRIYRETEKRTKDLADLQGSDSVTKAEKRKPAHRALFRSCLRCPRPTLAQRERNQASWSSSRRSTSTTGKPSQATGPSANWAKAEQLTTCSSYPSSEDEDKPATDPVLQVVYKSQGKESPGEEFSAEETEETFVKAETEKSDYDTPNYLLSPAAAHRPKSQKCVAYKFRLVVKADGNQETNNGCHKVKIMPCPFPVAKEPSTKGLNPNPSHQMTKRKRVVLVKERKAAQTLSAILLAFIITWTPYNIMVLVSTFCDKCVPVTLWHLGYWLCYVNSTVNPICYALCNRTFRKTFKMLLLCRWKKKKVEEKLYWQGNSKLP
Description: as §1, with “Then the labelled membranes were solubilized with 0.27% Nonidet P40 for 30 min where after they were incubated with 20 μl (final dilution of 1:400) of the appropriate rabbit polyclonal Gα antibody (Covance, Princeton, NJ) for 60 min.” left out, “After 60 min of incubation, 50 μl (1.25 mg/well) anti-rabbit scintillation proximity assay (SPA) beads (GE Healthcare, Piscataway, NJ) were added per well where after the plates were incubated for another 3 h.” left out

M3AChR = M3AChR (Homo sapiens, UniProt P20309); assay: Competitive radioligand binding; settings: competitive binding; negative log-transformed; read-out: pKi (converted)
monkeys [6] = assay: BuTAC-induced emesis and its inhibition by domperidone; assay type: in vivo, Cebus Apella
Description: S1 Table. Emesis BuTAC / Domperidone
BuTAC 0.01 mg/kg / 1 in 7
Domperidone was purchased from Tocris Bioscience (Bristol, United Kingdom) and dissolved
in 0.9% saline. The compound was administered subcutaneously where after the animals

schizophrenic patients = tested on: schizophrenic patients; parameters: method as in PMID 13425257; settings: subcutaneous injection, twenty-three schizophrenic patients; cited from earlier work
[7] = tested on: antipsychotic-naïve Cebus Apella monkeys; assay: Side effects of BuTAC alone or with d-amphetamine; assay type: in vivo; settings: d-amphetamine 0.5 mg/kg alone
Description: (§2) Seven male Cebus Apella monkeys were used for evaluation the anti-amphetamine effect and the side effect profile of BuTAC. These monkeys were never before administered antipsychotics and had never experienced EPS, but had previously been administered amphetamine. For further evaluation of the EPS potential of BuTAC, the compound was tested in four male and female monkeys, all sensitized to drug-induced EPS by earlier chronic treatment with classical antipsychotic drugs.
(§3) All monkeys received all treatments with at least one week between tests and thus served as their own control. To avoid extended physical contact with the experimenter, the cages were reduced in sized by moving the back wall of the cage closer to the front wall to lightly immobilize the monkey while injecting the test substance in the thigh. This was done at 9 am at test days. After the appropriate pre-treatment time, the monkeys were videotaped in their cages at predefined time points after drug injection.
(§4) The rated primate behaviours and symptoms were the following: unrest, stereotypy, arousal, sedation and bradykinesia (Table 1). All monkeys were videotaped in 90-sec. sessions at specific time points throughout the test sessions. The videotapes were rated for amphetamine-induced behaviours and EPS by two experienced raters blinded to the treatment of the animal by means of a rating scale adapted from Peacock et al. and previously described by Andersen et al. (Table 1). In case of any discrepancy between the two ratings, the recording in question was re-evaluated and a rating agreed upon. The monkeys were videotaped at t = 30, 60, 90, 135, 150, 165, 180, 240, 300 min after BuTAC (or vehicle) administration. For the combination studies, d-amphetamine was injected at t = 120 min. Oral dyskinesia was measured in counts per 90 sec. The severity of other behaviours and symptoms were rated on a scale ranging from 0 (not present) to 6 (extreme presence).
(§5) For evaluation of anti-amphetamine effects, BuTAC was tested in doses of 0.001, 0.003, 0.01 mg/kg in combination with 0.5 mg/kg of d-amphetamine. BuTAC or peanut oil vehicle was injected s.c. at approximately 9 a.m. Pre-treatment time before s.c. injection of amphetamine was 120 min. For evaluation of side effects, BuTAC was tested alone at doses of 0.001, 0.003 and 0.01 mg/kg in antipsychotic-naïve monkeys and at doses of 0.003 and 0.01 mg/kg in monkeys sensitized to extrapyramidal side effects (EPS) by earlier long-term treatment with first generation antipsychotics. […] None of the animals were sacrificed.
(§6) Data from the experiments where BuTAC was administered alone collected at t = 60, 180, 300 min are presented. For the d-amphetamine / BuTAC study, data collected at t(amp) = 60, 120 and 180 min (t = 180, 240, 300 min) are reported. Data were analyzed for overall treatment effects at each time point by means of the non-parametric Friedman’s test for repeated measures. The Student Newman-Keuls comparison procedure was used to analyze for specific dose effects. For all tests, the accepted level of significance was p<0.05.

[8] = tested on: antipsychotic-naïve Cebus Apella monkeys; assay: d-Amphetamine-induced behaviour (unrest, stereotypies, arousal), video rating; assay type: in vivo
Description: as §2, §3, §4, §5, §6

[9] = antagonist mode, maximal inhibition of EC90 agonist response
[10] = percentage of maximum 100 μM oxotremorine-M signal
[11] = percentage of maximum 100 μM oxotremorine-M signal, read-out: % Emax

T2 sequence (P20309 whole entry): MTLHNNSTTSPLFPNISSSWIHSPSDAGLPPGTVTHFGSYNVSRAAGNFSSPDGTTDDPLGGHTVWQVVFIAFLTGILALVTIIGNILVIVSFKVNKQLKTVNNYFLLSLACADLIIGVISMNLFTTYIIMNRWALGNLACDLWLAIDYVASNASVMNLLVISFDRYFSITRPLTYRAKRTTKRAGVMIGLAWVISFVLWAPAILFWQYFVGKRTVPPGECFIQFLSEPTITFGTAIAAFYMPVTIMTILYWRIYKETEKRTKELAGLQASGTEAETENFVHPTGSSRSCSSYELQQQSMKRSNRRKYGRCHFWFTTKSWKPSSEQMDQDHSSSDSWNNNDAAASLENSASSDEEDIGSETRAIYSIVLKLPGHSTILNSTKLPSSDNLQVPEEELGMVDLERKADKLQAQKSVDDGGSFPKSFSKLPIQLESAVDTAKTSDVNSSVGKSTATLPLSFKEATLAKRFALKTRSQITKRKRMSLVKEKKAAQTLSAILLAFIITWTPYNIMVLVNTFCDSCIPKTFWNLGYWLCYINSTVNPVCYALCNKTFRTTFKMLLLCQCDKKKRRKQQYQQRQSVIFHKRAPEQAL
Sequence of M3AChR (P20309 whole entry): as above

Question: Which “Minimal effective dose to inhibit amphetamine-induced behaviour” value (monkeys [1]) does the source give for `O=C(CCCN1CCC(O)(c2ccc(Cl)cc2)CC1)c1ccc(F)cc1` [haloperidol] here?
Answer: 0.015 mg/kg

Question: Which “% Inhibition” value [2, 9] does the source give for `CCCCCCOc1nsnc1C1=CCCN(C)C1` [Xanomeline, xanomeline] here?
Answer: 19.4 ± 0.77%

Question: And the Emax [2, 10]?
Answer: 55.2 ± 5.12%

Question: And the EC50 ([3]; agonist mode, mean ± SEM of negative log-transformed values, read-out: Rel pEC50 (converted))?
Answer: 17.8 nM

Question: What about the IC50 ([3]; antagonist mode against EC90 of agonist, negative log-transformed, read-out: Rel pIC50 (converted)) of the same molecule?
Answer: 832 nM

Question: And the “% Inhibition” value [3, 9]?
Answer: 87.6 ± 6.79%

Question: And the Emax [3, 10]?
Answer: 13.6 ± 0.56%

Question: What about the “% Inhibition” value [4, 9] of the same molecule?
Answer: 51.4 ± 2.61%

Question: And the Emax [4, 11]?
Answer: 41.8 ± 1.99%

Question: And the “% Inhibition” value [5, 9]?
Answer: 81.8 ± 18.5%

Question: What about the Emax [5, 11] of the same molecule?
Answer: 28.7 ± 0.7%

Question: What about the Ki (M3AChR) of the same molecule?
Answer: 27.5 nM

Question: What does the source list for `O=c1[nH]c2ccccc2n1CCCN1CCC(n2c(=O)[nH]c3cc(Cl)ccc32)CC1` [domperidone]?
Answer: Emetic events (vomiting), monkeys with emesis (monkeys [6]; BuTAC 0.01 mg/kg / domperidone 0.05 mg/kg s.c.): 3/7; Emetic events (vomiting), monkeys with emesis (monkeys [6]; BuTAC 0.01 mg/kg / domperidone 0.10 mg/kg s.c.): 1/7; Effect on BuTAC (0.01 mg/kg)-induced emesis (monkeys [6]; domperidone 0.05 and 0.1 mg/kg): dose dependently inhibited

Question: For `COC(=O)C1=CCCN(C)C1` [arecoline], which “Patients with clinical improvement (“lucid intervals”)” value (schizophrenic patients) is on record?
Answer: more than 80%

Question: With `C[C@H](N)Cc1ccccc1.C[C@H](N)Cc1ccccc1.O=S(=O)(O)O` [d-amphetamine, d-Amphetamine sulphate, reference compound] as the molecule, how does the “Emetic events (vomiting) (monkeys affected)” value [7] read?
Answer: 0

Question: What about the “Salivation (monkeys affected)” value [7] of the same molecule?
Answer: 0

Question: And the “Sedation 2 ≤ X ≤ 5 (monkeys affected)” value [7]?
Answer: 0

Question: What about the Stereotypies ([8]; amphetamine 0.5 mg/kg alone, all three test times) of the same molecule?
Answer: significantly induced stereotypies

Question: And the Arousal ([8]; d-amphetamine 0.5 mg/kg alone, all test times)?
Answer: induced arousal

Question: What about the Unrest ([8]; d-amphetamine 0.5 mg/kg alone, all time points, relative to vehicle) of the same molecule?
Answer: significantly increased unrest
